The text below walks through data of patent publication US20100130457A1, “Phenothiazine Derivatives for Treatment of Asthma” (Immune Control, Inc., priority 2008, published 2010).

SMILES strings stand for the structures. “Also recorded” adds a separate entry of the source. Where two headings read alike, the source gives them in different places.

In data set [1] the test system is RPMI 8226. Kind of data set: Inhibition of proliferation of RPMI 8226 cells. In kind it is cell-based, human. The following applies: RPMI cells in vitro. An excerpt:
The next set of experiments was designed to assess compounds that have low levels of brain penetration for the ability of the test compounds to inhibit cellular proliferation. An exemplary in vitro assay is to screen for the ability of the test compounds to inhibit proliferation of the B-cell neoplastic cell line RPMI 8226 (a plasmacytoma derived from a multiple myeloma patient (Matsuoka, et al., 1967, Proc. Soc. Exp. Biol. Med. 125: 1246-1250). However other cell line can be used such as, U266 (established from an IgE-secreting myeloma patient (Nilsson, et al., 1970, Clin. Exp. Immunol., 7: 477-489) and ARH77 (an EBV transformed plasma cell leukemia (Burk, et al., 1978, Cancer Res. 38: 2508-2513).
FIG. 1 is a graph depicting the effects on the test compounds on RPMI cell viability.

In data set [2] the test system is MPR1-MDCK. Kind of data set: MPR1-MDCK permeability, potential to cross the blood-brain barrier. The following applies: for % Recovery A-B / Papp A-B: A-B direction; for % Recovery B-A / Papp B-A: B-A direction; for Efflux: efflux ratio; for Brain Penetration Classification: from A-B Papp and efflux ratio. In kind it is in vitro ADME. The source says:
(§1) A criterion for selecting an agent for proceeding to clinical trials is whether the compound crosses the blood-brain barrier. […] Fluphenazine (ICI-01175) is used as a control compound that has the potential to cross the blood-brain barrier. Table 1 summarizes the results of the test compounds for their potential to cross the blood-brain barrier.

Assay in data set [3]: as above
The data set is classed as in vitro ADME. To be noted: dog, MDCK.
Source text: as §1

The subject of data set [4] is human small airway. Kind of data set: Human precision-cut lung slices (PCLS), small airway contraction. The procedure: Human precision-cut lung slices (PCLS) permit evaluation of pharmacological responses of novel drug candidates applied directly to their target tissue.
Human precision-cut lung slices (PCLS, 250 μm thick) containing a small airway were contracted to carbachol, histamine and passively sensitization to induce airway closure±pre-incubation with ICI-735 (10 μM; 2 hours); FIG. 13. For example, human lung slices containing a small airway were incubated overnight with either negative control IgG (4 μg/mL) or positive control IgE (4 μg/mL). The slices were tested as follows: 1) IgG+anti-IgE; 2) IgE+anti-IgE; 3) IgE+Dexamethasone (1 μM)+anti-IgE; and 4) IgE+ICI-735 (10 μM) +anti-IgE. Dexamethasone and ICI-735 were pre-incubated 2 hours prior to anti-IgE; anti-IgE is used to crosslink antibodies and induce mast cell degranulation, which is believed to release histamine and cause airway contract. […]
Human lung tissue contains multiple cell types, including mast cells, that localize in the region of airway smooth muscle, and that increase in number in individuals with asthma. Cross-linking of Fcε;R1 receptors on surfaces of mast cells leads to release of granules that contain smooth muscle contractile agonists, including histamine and leukotrienes.
To test C-027 as a blocker of histamine-induced bronchoconstriction, lung slices were incubated for 2 hours with C-027, and small airway contraction was evaluated after addition of increasing concentrations of histamine.

As to `NCC(=O)NCCN1CCC(CCCN2c3ccccc3Sc3ccc(C(F)(F)F)cc32)CC1` [ICI-00848], the “ability to inhibit proliferation of RPMI cells” value (from here on “ability to inhibit proliferation”) in data set [1] is listed as “able to inhibit”. In data set [2], the “% Recovery A-B” value amounted to 22%, the “Papp A-B” value came to 0.24 ×10⁻⁶ cm/s, the “% Recovery B-A” value is on record as 21% and the “Papp B-A” value was 15.5 ×10⁻⁶ cm/s. Moreover, in data set [2], the Efflux is 64; the “Brain Penetration Classification” value is “Low (A-B Papp > 3.0 and Efflux Ratio > 10: Low)”.
`NCC(N)C(=O)NCCN1CCN(CCCN2c3ccccc3Sc3ccc(C(F)(F)F)cc32)CC1` (stereo not drawn) [ICI-761]: the “ability to inhibit proliferation” value in data set [1] is given as “able to inhibit”.
For `NCCCN1CCC(CCCN2c3ccccc3Sc3ccc(C(F)(F)F)cc32)CC1` [ICI-00847], the “ability to inhibit proliferation” value in data set [1] (listed as ICI-847) was “able to inhibit; also recorded: active”. In data set [2], the “% Recovery A-B” value came out at 9%, the “Papp A-B” value stood at 0.56 ×10⁻⁶ cm/s, the “% Recovery B-A” value stood at 31% and the “Papp B-A” value is 9.56 ×10⁻⁶ cm/s. In data set [2], the Efflux is listed as 17; the “Brain Penetration Classification” value is “Low (A-B Papp > 3.0 and Efflux Ratio > 10: Low)”.
For orientation: Papp A→B means how fast a substance crosses the layer from the apical side. Lower therefore signals poor permeation. What is called Papp B→A is how fast a substance crosses the layer from the basolateral side. In general, efflux ratio refers to the permeability from basolateral to apical divided by that in the opposite direction, in the common usage. In turn, `OCCN1CCN(CCCN2c3ccccc3Sc3ccc(C(F)(F)F)cc32)CC1` [ICI-01175, Fluphenazine, reference compound] displayed an apparent permeability from apical to basolateral (Papp A→B) in data set [3] (A-B direction) of 8.7 ×10⁻⁶ cm/s. Also, the recovery came out at 24% in data set [3] (A-B direction, read-out: % Recovery A-B) and 43% in data set [3] (B-A direction, read-out: % Recovery B-A). Besides, the apparent permeability from basolateral to apical (Papp B→A) in data set [3] (B-A direction) is 9.63 ×10⁻⁶ cm/s. Further, the efflux ratio in data set [3] (efflux ratio) was 1.1. For the same compound, the “Brain Penetration Classification” value in data set [2] was “High (A-B Papp > 3.0 and Efflux Ratio < 3.0: High)”.
In the case of `CNCC(=O)NCCCN1CCN(CCCN2c3ccccc3Sc3ccc(C(F)(F)F)cc32)CC1` [ICI-00823], in data set [2], the “% Recovery A-B” value was determined as 57%, the “Papp A-B” value is <0.24 ×10⁻⁶ cm/s, the “% Recovery B-A” value is listed as 46% and the “Papp B-A” value was 19.4 ×10⁻⁶ cm/s. In data set [2], the Efflux is listed as >80; the “Brain Penetration Classification” value is “Low (A-B Papp > 3.0 and Efflux Ratio > 10: Low)”.
On to `NCCCN1CCN(CCCN2c3ccccc3Sc3ccc(C(F)(F)F)cc32)CC1` [ICI-00760], for which, in data set [2], the “% Recovery A-B” value is listed as 46%, the “Papp A-B” value was <0.25 ×10⁻⁶ cm/s, the “% Recovery B-A” value is reported as 40% and the “Papp B-A” value was found to be 18.8 ×10⁻⁶ cm/s. Also, in data set [2], the Efflux is >75; the “Brain Penetration Classification” value is “Low (A-B Papp > 3.0 and Efflux Ratio > 10: Low)”.
As for `NCC(=O)NCCCN1CCC(CCCN2c3ccccc3Sc3ccc(C(F)(F)F)cc32)CC1` [ICI-01260], the “ability to inhibit proliferation” value in data set [1] (listed as ICI-1260) is recorded as “able to inhibit; also recorded: active”. Further, in data set [2], the “% Recovery A-B” value is 55%, the “Papp A-B” value came to 0.32 ×10⁻⁶ cm/s, the “% Recovery B-A” value was 47% and the “Papp B-A” value amounted to 26.4 ×10⁻⁶ cm/s. In data set [2], the Efflux was found to be 82; the “Brain Penetration Classification” value was “Low (A-B Papp > 3.0 and Efflux Ratio > 10: Low)”.
For `N#Cc1ccc2c(c1)N(CCCN1CCN(CCN)CC1)c1ccccc1S2` [ICI-00894], in data set [2], the “% Recovery A-B” value turned out to be 56%, the “Papp A-B” value turned out to be 0.22 ×10⁻⁶ cm/s, the “% Recovery B-A” value turned out to be 56% and the “Papp B-A” value stood at 30 ×10⁻⁶ cm/s. Besides, in data set [2], the Efflux is listed as 136; the “Brain Penetration Classification” value was “Low (A-B Papp > 3.0 and Efflux Ratio > 10: Low)”.
With `NCCN1CCC(CCCN2c3ccccc3Sc3ccc(C(F)(F)F)cc32)CC1` [ICI-00846], in data set [2], the “% Recovery A-B” value is reported as 3%, the “Papp A-B” value is <0.36 ×10⁻⁶ cm/s, the “% Recovery B-A” value came out at 1% and the “Papp B-A” value was <0.49 ×10⁻⁶ cm/s. The “Brain Penetration Classification” value in data set [2] is “Low (A-B Papp > 3.0 and Efflux Ratio > 10: Low)”.
In the case of `FC(F)(F)c1ccc2c(c1)N(CCCC1CCNCC1)c1ccccc1S2` [ICI-00824], in data set [2], the “% Recovery A-B” value amounted to 11%, the “Papp A-B” value turned out to be 1.77 ×10⁻⁶ cm/s, the “% Recovery B-A” value came to 21% and the “Papp B-A” value came out at 13.8 ×10⁻⁶ cm/s. Further, in data set [2], the Efflux came out at 7.8; the “Brain Penetration Classification” value was “Low (A-B Papp > 3.0 and Efflux Ratio > 10: Low)”.
For the compound `CC(C)NCC(O)c1ccc(O)c(O)c1` (stereo not drawn) [isoproterenol, reference compound], in data set [4] (in the presence of 30 μM CCh, isoproterenol 10 μM), the “relaxation of maximally contracted airway smooth muscle” value was “comparable degree of relaxation”.
Regarding `CC(=O)NCCN1CCC(CCCN2c3ccccc3Sc3ccc(C(F)(F)F)cc32)CC1` [ICI-00850], in data set [2], the “% Recovery A-B” value is reported as 11%, the “Papp A-B” value stood at 0.94 ×10⁻⁶ cm/s, the “% Recovery B-A” value is on record as 9% and the “Papp B-A” value is 4.94 ×10⁻⁶ cm/s. Also, in data set [2], the Efflux is on record as 5.3; the “Brain Penetration Classification” value is “Low (A-B Papp > 3.0 and Efflux Ratio > 10: Low)”.
As to `FC(F)(F)c1ccc2c(c1)N(CCCCN1CCNCC1)c1ccccc1S2` [ICI-00890], in data set [2], the “% Recovery A-B” value is listed as 15%, the “Papp A-B” value came to 0.75 ×10⁻⁶ cm/s, the “% Recovery B-A” value stood at 29% and the “Papp B-A” value came out at 8.6 ×10⁻⁶ cm/s. Besides, in data set [2], the Efflux is reported as 11; the “Brain Penetration Classification” value was “Low (A-B Papp > 3.0 and Efflux Ratio > 10: Low)”.
With `C[N+](C)(C)CCOC(N)=O` [Carbachol, reference compound], in data set [4] (10^−8 to 10^−5 M, dose-dependent), the bronchoconstriction result is recorded as “up to 70%”.
With `CNCC(=O)NCCN1CCN(CCCN2c3ccccc3Sc3ccc(C(F)(F)F)cc32)CC1` [ICI-00758], in data set [2], the “% Recovery A-B” value is listed as 59%, the “Papp A-B” value turned out to be 0.21 ×10⁻⁶ cm/s, the “% Recovery B-A” value came to 41% and the “Papp B-A” value was 24.9 ×10⁻⁶ cm/s. Further, in data set [2], the Efflux is recorded as 116; the “Brain Penetration Classification” value was “Low (A-B Papp > 3.0 and Efflux Ratio > 10: Low)”.
Regarding `CN(C)CCCN1CCC(CCCN2c3ccccc3Sc3ccc(C(F)(F)F)cc32)CC1` [ICI-01505], in data set [2], the “% Recovery A-B” value worked out at 3%, the “Papp A-B” value was <0.36 ×10⁻⁶ cm/s, the “% Recovery B-A” value was 26% and the “Papp B-A” value worked out at 0.64 ×10⁻⁶ cm/s. Further, in data set [2], the Efflux is >1.8; the “Brain Penetration Classification” value is “Low (A-B Papp > 3.0 and Efflux Ratio > 10: Low)”.
Take `C[C@@H]1C[C@H]2[C@@H]3CCC4=CC(=O)C=C[C@]4(C)[C@@]3(F)[C@@H](O)C[C@]2(C)[C@@]1(O)C(=O)CO` [Dexamethasone, reference compound]: the “airway contraction to IgE/anti-IgE (passive sensitization, mast cell degranulation)” value in data set [4] (ICI-735 10 μM, dexamethasone 1 μM, pre-incubated 2 hours) is recorded as “no effect”.
Regarding `FC(F)(F)c1ccc2c(c1)N(CCCN1CCNCC1)c1ccccc1S2` [ICI-00685], in data set [2], the “% Recovery A-B” value is 17%, the “Papp A-B” value came to 0.66 ×10⁻⁶ cm/s, the “% Recovery B-A” value is listed as 15% and the “Papp B-A” value came out at 4.47 ×10⁻⁶ cm/s. In addition, in data set [2], the Efflux worked out at 6.8; the “Brain Penetration Classification” value was “Low (A-B Papp > 3.0 and Efflux Ratio > 10: Low)”.
Turning to `CN(C)CCN1CCN(CCCN2c3ccccc3Sc3ccc(C(F)(F)F)cc32)CC1` [ICI-00738], in data set [2], the “% Recovery A-B” value came to 15%, the “Papp A-B” value was found to be 1.06 ×10⁻⁶ cm/s, the “% Recovery B-A” value is 40% and the “Papp B-A” value worked out at 3.33 ×10⁻⁶ cm/s. In addition, in data set [2], the Efflux is recorded as 3.1; the “Brain Penetration Classification” value was “Low (A-B Papp > 3.0 and Efflux Ratio > 10: Low)”.
`NCC(=O)NCCCN1CCN(CCCN2c3ccccc3Sc3ccc(C(F)(F)F)cc32)CC1` [ICI-00822]: in data set [2], the “% Recovery A-B” value worked out at 61%, the “Papp A-B” value worked out at 0.13 ×10⁻⁶ cm/s, the “% Recovery B-A” value is given as 22% and the “Papp B-A” value was 15.7 ×10⁻⁶ cm/s. Further, in data set [2], the Efflux worked out at 119; the “Brain Penetration Classification” value was “Low (A-B Papp > 3.0 and Efflux Ratio > 10: Low)”.
